Holding throughout (assay): Transient transfection (transactivation) assay in CV-1 cells, GAL4 chimera, SPAP reporter
Common to all, as to assay type: cell-based

The target of one assay is T1, hPPAR α (Homo sapiens, UniProt Q07869).
T1 construct: expressed in transfected cells; host or cells: CV-1 cells
T1 sequence (Q07869 239-466 limits assumed): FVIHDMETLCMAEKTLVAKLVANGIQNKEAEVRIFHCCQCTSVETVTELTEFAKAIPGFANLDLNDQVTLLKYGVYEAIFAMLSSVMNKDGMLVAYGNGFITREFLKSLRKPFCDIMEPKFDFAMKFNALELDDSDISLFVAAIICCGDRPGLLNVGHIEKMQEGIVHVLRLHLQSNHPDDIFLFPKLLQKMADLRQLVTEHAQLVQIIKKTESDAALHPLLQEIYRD
The source says: (§1) Compounds were screened for functional potency in transient transfection assays in CV-1 cells for their ability to activate the PPAR subtypes (transactivation assay). A previously established chimeric receptor system was utilized to allow comparison of the relative transcriptional activity of the receptor subtypes on the same target gene and to prevent endogenous receptor activation from complicating the interpretation of results. See, for example, Lehmann, J. M.; Moore, L. B.; Smith-Oliver, Oliver T. A.; Wilkison, W. O.; Willson, T. M.; Kliewer, S. A., An antidiabetic thiazolidinedione is a high affinity ligand for peroxisome proliferator-activated receptor gamma (PPAR gamma), J. Biol. Chem., 1995, 270, 12953-6. The ligand binding domains for murine and human PPAR alpha, PPAR gamma, and PPAR delta were each fused to the yeast transcription factor GAL4 DNA binding domain. CV-1 cells were transiently transfected with expression vectors for the respective PPAR chimera along with a reporter construct containing five copies of the GAL4 DNA binding site driving expression of secreted placental alkaline phosphatase (SPAP) and β-galactosidase. After 16 h, the medium was exchanged to DME medium supplemented with 10% delipidated fetal calf serum and the test compound at the appropriate concentration. After an additional 24 h, cell extracts were prepared and assayed for alkaline phosphatase and β-galactosidase activity. Alkaline phosphatase activity was corrected for transfection efficiency using the β-galactosidase activity as an internal standard (see, for example, Kliewer, S. A., et. al. Cell 83, 813-819 (1995)). Rosiglitazone (BRL 49653) was used as a positive control in the hPPAR gamma assay. The positive control in the hPPAR alpha assays was 2-(2-methyl-3-[3-{3-(4-cyclohexylamino)[6-(4-fluorophenylpiperazin-1-yl)][1,3,5]triazin-2-ylamino}propyl]phenylthio)-2-methylpropionic acid. The positive control for PPAR delta assays was 2-{2-methyl-4-[({4-methyl-2-{-{trifluoromethyl)phenyl]-1,3-thiazol-5-yl}methyl)sulfanyl]phenoxy}acetic acid.

For the next assay, the target named is T2, hPPAR γ (Homo sapiens, UniProt P37231).
T2 construct: expressed in transfected cells; host or cells: CV-1 cells
T2 sequence (P37231 238-503 limits assumed): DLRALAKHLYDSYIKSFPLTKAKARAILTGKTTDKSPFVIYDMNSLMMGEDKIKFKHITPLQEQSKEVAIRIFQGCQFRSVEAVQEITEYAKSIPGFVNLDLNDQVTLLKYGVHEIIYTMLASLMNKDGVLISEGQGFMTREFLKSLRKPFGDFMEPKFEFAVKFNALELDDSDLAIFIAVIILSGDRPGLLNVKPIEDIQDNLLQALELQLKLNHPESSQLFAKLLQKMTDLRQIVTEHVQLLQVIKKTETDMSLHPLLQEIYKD
Source text: as §1

For the next assay, the target named is T3, hPPAR δ (Homo sapiens, UniProt Q03181).
T3 construct: expressed in transfected cells; host or cells: CV-1 cells
T3 sequence (Q03181 211-439 limits assumed): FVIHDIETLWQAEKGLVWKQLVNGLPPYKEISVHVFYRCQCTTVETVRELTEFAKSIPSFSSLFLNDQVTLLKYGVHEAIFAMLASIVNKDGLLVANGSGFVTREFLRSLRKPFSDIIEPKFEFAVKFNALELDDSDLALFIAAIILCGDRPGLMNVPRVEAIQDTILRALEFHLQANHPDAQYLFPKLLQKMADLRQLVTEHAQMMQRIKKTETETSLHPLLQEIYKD
Source text: as §1

For `Cc1nc(-c2ccc(C(F)(F)F)cc2)sc1C(=O)NC1CCCc2cc(OC(C)(C)C(=O)O)ccc21` (stereo not drawn) [Example 4], the EC50 was 0.01 µM on hPPAR α, 2.22 µM at hPPAR γ and 8.6 µM at hPPAR δ.

A word on the EC50: it is the concentration at which the effect is half-maximal. A higher EC50 goes with lower potency in that assay.

(Values after patent US6867225B2, “Thiazole or oxazole derivatives which are useful in the treatment of cardiovascular and related diseases” (SmithKline Beecham Corporation, priority 2001, dated 2005).)
